Reference: PMC11831190 (MedComm, 2025)
Read-outs that look alike come from different tables or passages of the source.

Test: Pharmacokinetic evaluation of Oraxol in patients with MBC (weeks 1 and 4)
Type: in vivo, human
Details: for AUC(0-t) / Cmax / Tmax: human, in vivo, oral; for AUC(0-t): read-out: AUC (0-52) Mean
Method: Similarly, patients were readmitted to the clinic the preceding night dosing on week 4, day 1, and remained at the clinic until pharmacokinetic sampling was completed on Day 3 of that week.
Analytical determination of pharmacokinetic parameters was conducted in patients who provided at least one post‐dose blood sample. The study weeks were counted consecutively starting from week 1 for pharmacokinetic sampling. However, for week 4 pharmacokinetic sampling, a delay was permitted at the investigator's discretion to allow the relevant time to recuperate from any intolerable toxicity, if present. In the instance of treatment postponement, pharmacokinetic samples for week 4 were collected immediately after treatment resumed, regardless of whether a dose reduction were applied.
The pharmacokinetic parameters were synthesized utilizing descriptive data analysis, including mean, standard deviation, median, minimum, and maximum values. What is more, summaries of pharmacokinetic parameters included the geometric average and the coefficient of variation. Individual concentration data and corresponding area under the AUC timepoint data were tabulated in both nominal and actual sampling times for all patients. The concentration‐timepoint data (in actual times) were presented graphically for each subject.
The pharmacokinetic parameters were analyzed using logarithmic transformation, followed by statistical evaluation through analysis of variance, considering subject and treatment effects. […] This analysis allowed for the assessment of the pharmacokinetic profile of Oraxol over the course of treatment.

Compound | Tmax (0-24) Median (Study day 1) [h] | Tmax (0-24) Median (Study day 22) [h] | AUC(0-t) (Study day 1) [ng·h/mL] | Cmax (Study day 1, read-out: Cmax (0-24) Mean) [ng/mL] | Cmax (Study day 1, read-out: Cmax (24-48) Mean) [ng/mL] | Cmax (Study day 1, read-out: Cmax (48-52) Mean) [ng/mL] | Cmax (Study day 1, read-out: Cmax Mean) [ng/mL] | Tmax (Study day 1, read-out: Tmax (24-48) Median) [h] | Tmax (Study day 1, read-out: Tmax (48-52) Median) [h] | AUC(0-t) (Study day 22) [ng·h/mL] | Cmax (Study day 22, read-out: Cmax (0-24) Mean) [ng/mL] | Cmax (Study day 22, read-out: Cmax (24-48) Mean) [ng/mL] | Cmax (Study day 22, read-out: Cmax (48-52) Mean) [ng/mL] | Cmax (Study day 22, read-out: Cmax Mean) [ng/mL] | Tmax (Study day 22, read-out: Tmax (24-48) Median) [h] | Tmax (Study day 22, read-out: Tmax (48-52) Median) [h]
CC(=O)O[C@H]1C(=O)[C@@]2(C)[C@H]([C@H](OC(=O)c3ccccc3)[C@]3(O)C[C@H](OC(=O)[C@H](O)[C@@H](NC(=O)c4ccccc4)c4ccccc4)C(C)=C1C3(C)C)[C@]1(OC(C)=O)CO[C@@H]1C[C@@H]2O [Paclitaxel] | 1 | 1 | 3540 | 288 | 338 | 324 | 404 | 25.5 | 49.3 | 3520 | 329 | 289 | 313 | 398 | 25 | 49
COc1cc2c(cc1OC)CN(CCc1ccc(-n3nnc(-c4cc(OC)c(OC)cc4NC(=O)c4cc(=O)c5ccccc5o4)n3)cc1)CC2.CS(=O)(=O)O.O [HM30181A, HM30181A methanesulfonate monohydrate] | 5 | 4.5 | – | – | – | – | – | – | – | – | – | – | – | – | – | –
